According to patent US20090137396A1, “Piperazine Compounds with a Herbicidal Action” (BASF SE, priority 2006, published 2009):

Test system: Amaranthus retroflexus (AMARE)
Assay: greenhouse experiment, pre-emergence treatment, AMARE
Format: in vivo
Conditions: pre-emergence method, application rate 1 kg/ha; scale from 0 to 100
Text: (§1) The seeds of the test plants were sown separately for each species. For the pre-emergence treatment, the active ingredients, which had been suspended or emulsified in water, were applied directly after sowing by means of finely distributing nozzles. The containers were irrigated gently to promote germination and growth and subsequently covered with transparent plastic hoods until the plants had rooted. This cover causes uniform germination of the test plants, unless this has been impaired by the active ingredients. Depending on the species, the plants were kept at 10-25° C. or 20-35° C. The test period extended over 2 to 4 weeks. During this time, the plants were tended, and their response to the individual treatments was evaluated. Evaluation was carried out using a scale from 0 to 100. 100 means no emergence of the plants, or complete destruction of at least the aerial moieties, and 0 means no damage, or normal course of growth. Good herbicidal activity is given for values of at least 70 and very good herbicidal activity is given for values of at least 85. The plants used in the greenhouse experiments belonged to the following species: [table]

With `CN1C(=O)C(Cc2ccccc2)N(C(=O)c2ccccc2)C(=O)C1=Cc1ccccc1C#N` (stereo not shown) [Example 137] as the molecule, how does the “herbicidal activity against AMARE” value read?
Its value is “good (Good herbicidal activity is given for values of at least 70)”.

Test system: not given
Assay: not given
Conditions: not given

Which melting point does the source give for `CN1C(=O)C(Cc2ccccc2)N(C)C(=O)C1=Cc1c[nH]c2cccc([N+](=O)[O-])c12` (stereo not shown) [184] here?
The melting point was 159 °C.

Which melting point does the source give for `CN1C(=O)C(Cc2ccccc2)N(C)C(=O)C1=Cc1c[nH]c2cccc([N+](=O)[O-])c12` (stereo not shown) [185] here?
The melting point was 238 °C.

For `CN1C(=O)C(Cc2ccccc2)N(C)C(=O)C1=Cc1c(C#N)ccc(F)c1F` (stereo not shown) [Example 115, 3-Benzyl-1,4-dimethyl-6-(2-cyano-5,6-difluorobenzylidene)piperazine-2,5-dione], which melting point is on record?
The melting point was 175 °C.

With `CN1C(=O)C(Cc2ccccc2)N(C)C(=O)C1=Cc1ccncc1[N+](=O)[O-]` (stereo not shown) [Example 196] as the molecule, how does the melting point read?
The melting point was 180 °C.

Which melting point does the source give for `CN1C(=O)C(Cc2ccccc2)N(C)C(=O)C1=Cc1ccncc1[N+](=O)[O-]` (stereo not shown) [Example 197] here?
The melting point was 175 °C.

For `CN1C(=O)C(Cc2ccccc2)N(C)C(=O)C1=Cc1ncccc1[N+](=O)[O-]` (stereo not shown) [Example 198], which melting point is on record?
The melting point was 165 °C.

With `CN1C(=O)C(Cc2ccccc2)N(C)C(=O)C1=Cc1c[nH]c2cccc(Br)c12` (stereo not shown) [Example 199] as the molecule, how does the melting point read?
Its melting point is 236 °C.

Which melting point does the source give for `CN1C(=O)C(Cc2ccccc2)N(C)C(=O)C1=Cc1cccnc1C#N` (stereo not shown) [Example 205] here?
The melting point was 218 °C.

Test system: test plants
Assay: greenhouse experiment, post-emergence treatment, species not stated
Format: in vivo
Conditions: post-emergence method; scale from 0 to 100
Text: (§2) The seeds of the test plants were sown separately for each species. For the post-emergence treatment, the test plants were first grown to a height of 3 to 15 cm, depending on the plant habit, and only then treated with the active ingredients which had been suspended or emulsified in water. For this purpose, the test plants were either sown directly and grown in the same containers, or they were first grown separately as seedlings and transplanted into the test containers a few days prior to treatment. Depending on the species, the plants were kept at 10-25° C. or 20-35° C. The test period extended over 2 to 4 weeks. During this time, the plants were tended, and their response to the individual treatments was evaluated. Evaluation was carried out using a scale from 0 to 100. 100 means no emergence of the plants, or complete destruction of at least the aerial moieties, and 0 means no damage, or normal course of growth. Good herbicidal activity is given for values of at least 70 and very good herbicidal activity is given for values of at least 85. The plants used in the greenhouse experiments belonged to the following species: [table]

With `Cc1cccc([N+](=O)[O-])c1C=C1C(=O)N(C)C(Cc2ccccc2)C(=O)N1C` (single isomer, unassigned) [Example 13] as the molecule, how does the herbicidal activity read?
Its herbicidal activity is “good to very good”.

With `CN1C(=O)C(Cc2ccccc2)N(C)C(=O)C1=Cc1cc2c(cc1[N+](=O)[O-])OCO2` (single isomer, unassigned) [Example 16] as the molecule, how does the herbicidal activity read?
The herbicidal activity was “good to very good”.

With `CN1C(=O)C(Cc2ccccc2)N(C)C(=O)C1=Cc1ccccc1-c1nccs1` (single isomer, unassigned) [Example 44] as the molecule, how does the herbicidal activity read?
Its herbicidal activity is “good to very good”.

For `CN1C(=O)C(Cc2ccccc2)N(C)C(=O)C1=Cc1ccccc1-c1ccco1` (single isomer, unassigned) [Example 47], which herbicidal activity is on record?
The herbicidal activity was “good to very good”.

With `CN1C(=O)C(Cc2ccccc2)N(C)C(=O)C1=Cc1ccccc1-c1ccco1` (single isomer, unassigned) [Example 48] as the molecule, how does the herbicidal activity read?
Its herbicidal activity is “good to very good”.

Which herbicidal activity does the source give for `Cc1coc(-c2ccccc2C=C2C(=O)N(C)C(Cc3ccccc3)C(=O)N2C)n1` (single isomer, unassigned) [Example 52] here?
The herbicidal activity was “good to very good”.

For `C=Cc1ccccc1C=C1C(=O)N(C)C(Cc2ccccc2)C(=O)N1C` (single isomer, unassigned) [Example 129], which herbicidal activity is on record?
Its herbicidal activity is “good to very good”.

Which herbicidal activity does the source give for `CN1C(=O)[C@H](Cc2ccccc2)N(C)C(=O)C1=Cc1ccccc1[N+](=O)[O-]` (stereo in doubt) [Example 1, 3-Benzyl-1,4-dimethyl-6-(2-nitrobenzylidene)piperazine-2,5-dione] here?
The herbicidal activity was “good to very good”.

For `CN1C(=O)C(Cc2ccccc2)N(C)C(=O)C1=Cc1ccccc1-c1cccs1` (stereo not shown) [Example 49], which herbicidal activity is on record?
The herbicidal activity was “good to very good”.

Which herbicidal activity does the source give for `CN1C(=O)C(Cc2ccccc2)N(C)C(=O)C1=Cc1ccccc1-c1cccnc1` (stereo not shown) [Example 51] here?
Its herbicidal activity is “good to very good”.

Which herbicidal activity does the source give for `CN1C(=O)C(Cc2ccccc2)N(C)C(=O)C1=C(Br)c1ccccc1C#N` (stereo not shown) [Example 160] here?
The herbicidal activity was “good to very good”.

For `CCN1C(=O)C(Cc2ccccc2)N(CC)C(=O)C1=Cc1ccccc1Br` (stereo not shown) [Example 170], which herbicidal activity is on record?
Its herbicidal activity is “good to very good”.

Test system: Avena fatua (AVEFA)
Assay: greenhouse experiment, pre-emergence treatment, AVEFA
Format: in vivo
Conditions: pre-emergence method, application rate 1 kg/ha; scale from 0 to 100
Text: as §1

Which “herbicidal activity against AVEFA” value does the source give for `CN1C(=O)C(Cc2ccccc2)N(C)C(=O)C1=Cc1cnccc1I` (stereo not shown) [Example 206] here?
Its value is “good (Good herbicidal activity is given for values of at least 70)”.

Test system: Abutilon theophrasti (ABUTH)
Assay: greenhouse experiment, pre-emergence treatment, ABUTH
Format: in vivo
Conditions: pre-emergence method, application rate 3 kg/ha; scale from 0 to 100
Text: as §1

For `COC(=O)c1ccccc1C=C1C(=O)N(C)C(Cc2ccccc2)C(=O)N1C` (stereo not shown) [Example 73], which “herbicidal activity against ABUTH” value is on record?
The value was “good (Good herbicidal activity is given for values of at least 70)”.

Test system: Lulium perenne (LOLMU)
Assay: greenhouse experiment, post-emergence treatment, LOLMU
Format: in vivo
Conditions: post-emergence method, application rate 1 kg/ha; scale from 0 to 100
Text: as §2

For `CN1C(=O)[C@H](Cc2ccccc2)N(C)C(=O)C1=Cc1ccccc1[N+](=O)[O-]` (stereo in doubt) [Example 1, 3-Benzyl-1,4-dimethyl-6-(2-nitrobenzylidene)piperazine-2,5-dione], which “herbicidal activity against LOLMU” value is on record?
Its value is “very good (very good herbicidal activity is given for values of at least 85)”.

Test system: test plants
Assay: greenhouse experiment, pre-emergence treatment, species not stated
Format: in vivo
Conditions: pre-emergence method; scale from 0 to 100
Text: as §1

Which herbicidal activity does the source give for `CN1C(=O)C(Cc2ccccc2)N(C)C(=O)C1=Cc1ccccc1-c1ncco1` (single isomer, unassigned) [Example 45] here?
Its herbicidal activity is “good to very good”.

For `CN1C(=O)C(Cc2ccccc2)N(C)C(=O)C1=Cc1ccccc1-c1ncccn1` (single isomer, unassigned) [Example 100], which herbicidal activity is on record?
The herbicidal activity was “good to very good”.

With `CN1C(=O)C(Cc2ccccc2)N(C)C(=O)C1=Cc1ccccc1-c1ncccn1` (single isomer, unassigned) [Example 101] as the molecule, how does the herbicidal activity read?
Its herbicidal activity is “good to very good”.

Which herbicidal activity does the source give for `CN1C(=O)C(Cc2ccccc2)N(C)C(=O)C1=Cc1ccccc1-c1cnccn1` (single isomer, unassigned) [Example 109] here?
Its herbicidal activity is “good to very good”.

With `CN1C(=O)C(Cc2ccccc2)N(C)C(=O)C1=Cc1ccccc1-c1cnccn1` (single isomer, unassigned) [Example 110] as the molecule, how does the herbicidal activity read?
The herbicidal activity was “good to very good”.

Which herbicidal activity does the source give for `Cc1cc(-c2ccccc2C=C2C(=O)N(C)C(Cc3ccccc3)C(=O)N2C)on1` (single isomer, unassigned) [Example 147] here?
The herbicidal activity was “good to very good”.

With `Cc1cc(-c2ccccc2C=C2C(=O)N(C)C(Cc3ccccc3)C(=O)N2C)on1` (single isomer, unassigned) [Example 148] as the molecule, how does the herbicidal activity read?
Its herbicidal activity is “good to very good”.

With `CN1C(=O)C(Cc2ccccc2)N(C)C(=O)C1=Cc1c(F)cccc1I` (stereo not shown) [Example 38] as the molecule, how does the herbicidal activity read?
Its herbicidal activity is “good to very good”.

For `CN1C(=O)C(Cc2ccccc2)N(C)C(=O)C1=Cc1c(Cl)cccc1I` (stereo not shown) [Example 40], which herbicidal activity is on record?
Its herbicidal activity is “good to very good”.

With `CN1C(=O)C(Cc2ccccc2)N(C)C(=O)C1=Cc1ccccc1C(F)(F)F` (stereo not shown) [Example 54] as the molecule, how does the herbicidal activity read?
The herbicidal activity was “good to very good”.

Which herbicidal activity does the source give for `CN1C(=O)C(Cc2ccccc2)N(C)C(=O)C1=Cc1cc(F)ccc1Br` (stereo not shown) [Example 62] here?
Its herbicidal activity is “good to very good”.

Which herbicidal activity does the source give for `COC(=O)c1ccccc1C=C1C(=O)N(C)C(Cc2ccccc2)C(=O)N1C` (stereo not shown) [Example 73] here?
Its herbicidal activity is “good to very good”.

For `CN1C(=O)C(Cc2ccccc2)N(C)C(=O)C1=Cc1c(Br)ccc(F)c1F` (stereo not shown) [Example 119, 3-benzyl-1,4-dimethyl-6-(2-bromo-5,6-difluorobenzylidene)piperazine-2,5-dione], which herbicidal activity is on record?
Its herbicidal activity is “good to very good”.

For `CN1C(=O)C(Cc2ccccc2)N(C)C(=O)C1=Cc1ccccc1-c1cncnc1` (stereo not shown) [Example 124], which herbicidal activity is on record?
Its herbicidal activity is “good to very good”.

For `CN1C(=O)C(Cc2ccccc2)N(C(=O)c2ccccc2)C(=O)C1=Cc1ccccc1C#N` (stereo not shown) [Example 137], which herbicidal activity is on record?
The herbicidal activity was “good to very good”.

For `CC(=O)N1C(=O)C(=Cc2ccccc2C#N)N(C)C(=O)C1Cc1ccccc1` (stereo not shown) [Example 140], which herbicidal activity is on record?
The herbicidal activity was “good to very good”.

For `CN1C(=O)C(Cc2ccccc2)N(C)C(=O)C1=Cc1ccsc1[N+](=O)[O-]` (stereo not shown) [Example 191], which herbicidal activity is on record?
The herbicidal activity was “good to very good”.

For `CN1C(=O)C(Cc2ccccc2)N(C)C(=O)C1=Cc1ncccc1[N+](=O)[O-]` (stereo not shown) [Example 198], which herbicidal activity is on record?
Its herbicidal activity is “good to very good”.

For `CN1C(=O)C(Cc2ccccc2)N(C)C(=O)C1=Cc1cccnc1Br` (stereo not shown) [Example 204], which herbicidal activity is on record?
Its herbicidal activity is “good to very good”.

With `CN1C(=O)C(Cc2ccccc2)N(C)C(=O)C1=Cc1cnccc1I` (stereo not shown) [Example 206] as the molecule, how does the herbicidal activity read?
The herbicidal activity was “good to very good”.

For `CN1C(=O)C(Cc2cccs2)N(C)C(=O)C1=Cc1ccccc1I` (stereo not shown) [Example 214], which herbicidal activity is on record?
The herbicidal activity was “good to very good”.

Test system: SETIT
Assay: greenhouse experiment, pre-emergence treatment, SETIT
Format: in vivo
Conditions: pre-emergence method, application rate 3 kg/ha; scale from 0 to 100
Text: as §1

Which “herbicidal activity against SETIT” value does the source give for `CN1C(=O)C(Cc2cccs2)N(C)C(=O)C1=Cc1ccccc1I` (stereo not shown) [Example 214] here?
Its value is “good (Good herbicidal activity is given for values of at least 70)”.
